Reference: PubChem BioAssay (NCI)
Values joined by “and” are separate entries in the source; they are usually repeats but may differ in a detail not shown here. Equal values may be shown once.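 Cultured in 96-well plates, cells were exposed to test compound for 48 hours across five concentrations. Abbreviation: GI50, concentration required for 50% inhibition of growth. TGI: total growth inhibition.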

What was measured:
Experiment in all cases: NCI tumour cell line growth inhibition, 48 h
U251 CNS = test system: U251 CNS
A549 NSCLC = test system: A549 NSCLC
SK-MEL-28 melanoma = test system: SK-MEL-28 melanoma
OVCAR-5 ovarian = test system: OVCAR-5 ovarian
MALME-3M melanoma = test system: MALME-3M melanoma
HCC-2998 colon = test system: HCC-2998 colon
RPMI-8226 leukemia = test system: RPMI-8226 leukemia
NCI/ADR-RES ovarian = test system: NCI/ADR-RES ovarian
HCT-116 colon = test system: HCT-116 colon
MDA-MB-435 = test system: MDA-MB-435

SMILES | GI50 (U251 CNS) | TGI (U251 CNS) | GI50 (A549 NSCLC) | TGI (A549 NSCLC) | GI50 (SK-MEL-28 melanoma) | TGI (SK-MEL-28 melanoma) | GI50 (OVCAR-5 ovarian) | TGI (OVCAR-5 ovarian) | GI50 (MALME-3M melanoma) | TGI (MALME-3M melanoma) | GI50 (HCC-2998 colon) | TGI (HCC-2998 colon) | GI50 (RPMI-8226 leukemia) | TGI (RPMI-8226 leukemia) [µM] | GI50 (NCI/ADR-RES ovarian) | TGI (NCI/ADR-RES ovarian) [µM] | GI50 (HCT-116 colon) | TGI (HCT-116 colon) | GI50 (MDA-MB-435) | TGI (MDA-MB-435) [µM]
C[C@@H]1CN(Cc2ccc(F)cc2)[C@@H](C)CN1C(=O)c1cc2c(C(=O)C(=O)N(C)C)cn(C)c2cc1Cl | 17.4 µM | 46.1 µM | 24 µM | > 92.4 µM | 13 µM | 35.2 µM | 21.8 µM | 60.4 µM | 17.2 µM | 37.7 µM | 17.3 µM | 34.4 µM | 16.7 µM | 51.9 | 14.9 µM | 52.7 | 21.6 µM | > 71.9 µM | 15 µM | 35.1
COc1ccc(-c2nc(Nc3cc(C)[nH]n3)c3ccccc3n2)cc1 | 1.16 µM | > 100 µM | 2.33 µM | 44.9 µM | 5.12 µM | > 100 µM | 2.25 µM | > 88 µM | 28.5 µM | > 100 µM | 3.35 µM | > 77.4 µM | 4.16 µM | 28.6 | 3.25 µM | > 58.1 | 0.744 µM | 17.5 µM | 1.3 µM | > 100
O=C(/C=C/c1ccccc1)CCN1CCOCC1 | – | 31.7 µM | – | 56.8 µM | – | 27.3 µM | – | 27.1 µM | – | 36.4 µM | – | 38 µM | – | 7.54 | – | 55.5 | – | 28 µM | – | 30.9
CO/N=C(\COc1ccc2c(c1)[nH]c1ccccc12)c1ccc(F)cc1 | 25.4 µM | > 100 µM | 29.6 µM | > 100 µM | > 100 µM | > 100 µM | > 100 µM | > 100 µM | 22.8 µM | > 100 µM | > 100 µM | > 100 µM | 43.9 µM | > 100 | 51.8 µM | > 100 | 20.6 µM | > 100 µM | > 100 µM | > 100
O=C1CCC(N2Cc3cc(CNC(=O)C(F)(F)c4ccc(Cl)cc4)ccc3C2=O)C(=O)N1 (stereo not drawn) | > 100 µM | > 100 µM | > 100 µM | > 100 µM | > 100 µM | > 100 µM | > 100 µM | > 100 µM | 0.105 µM | > 27.9 µM | 14 µM | > 100 µM | > 54.7 µM | > 100 | 29.2 µM | > 100 | > 100 µM | > 100 µM | > 100 µM | > 100
Nc1nc(OCc2ccccc2)c2[nH]cnc2n1 | 37.9 µM and 35.9 µM | 400 µM and 204 µM | 35.1 µM and 48.9 µM | 338 µM and 240 µM | 46.7 µM and 62.9 µM | 400 µM and 293 µM | 52.7 µM and 42.6 µM | 241 µM and 240 µM | 28 µM and 23.3 µM | 264 µM and 136 µM | 46.2 µM and 56 µM | 400 µM and 182 µM | 50 µM and 21.6 µM | 69 | 97.2 µM and 84.9 µM | 414 | 34.7 µM and 34.5 µM | 209 µM and 137 µM | 41.1 µM and 26.9 µM | 143
O=C(OCc1ccc2ccccc2n1)c1cn(C2CC2)c2cc(N3CCN(Cc4ccc5ccccc5n4)CC3)c(F)cc2c1=O | 56.7 µM | > 100 µM | 98.2 µM | > 100 µM | 35.4 µM | > 100 µM | > 81.5 µM | > 100 µM | 33.2 µM | > 84.2 µM | 34 µM | > 100 µM | > 36.3 µM | > 64.2 | 61.5 µM | > 100 | > 53.2 µM | > 95.3 µM | 39.4 µM | > 100
CN1C(=O)N(C)C2C1NN=c1s/c(=C\c3ccc(C(F)(F)F)cc3)c(=O)n12 (stereo not drawn) | 0.569 µM | 14.4 µM | 1.45 µM | > 100 µM | 10.2 µM | > 100 µM | 3.2 µM | > 100 µM | 8.33 µM | > 100 µM | 2.68 µM | > 100 µM | 1.65 µM | > 100 | 0.696 µM | 37.3 | 1.55 µM | > 100 µM | 0.312 µM | 1.34
CN[C@@H](C)C(=O)N[C@H](C(=O)N1CCC[C@H]1C(=O)Nc1sc(-c2ncco2)nc1-c1ccccc1)C1CCCCC1 | 26.9 µM | > 77.7 µM | 80.5 µM | > 100 µM | 16.3 µM | 33.9 µM | 38 µM | > 64.6 µM | 3.91 µM | 19.4 µM | 25.7 µM | 65.7 µM | 25.1 µM | > 89.9 | 27.4 µM | > 83.2 | 25.6 µM | > 85.4 µM | 26.3 µM | > 87.9
C/C(=C\c1ccc2ccccc2c1)[N+](=O)[O-] | 1.77 µM | 3.6 µM | 4.58 µM | 19.3 µM | 1.95 µM | 4.06 µM | 1.87 µM | 3.63 µM | 2.07 µM | 3.97 µM | 2.08 µM | 4.23 µM | 1.57 µM | 4.39 | 7.75 µM | 23.7 | 2.19 µM | 5.58 µM | 1.81 µM | 3.6
O=C(/C=C/c1cc2ccccc2[nH]c1=O)/C=C/c1cc2ccccc2[nH]c1=O | 4.53 µM | 12.1 µM | – | > 59.2 µM | 14.8 µM | > 66.5 µM | > 49 µM | > 100 µM | > 59.6 µM | > 100 µM | 5.28 µM | 9.01 µM | 4.02 µM | > 40.1 | > 78 µM | > 100 | 1.28 µM | 2.09 µM | – | > 20
OCc1ccc(N2CCCC2c2ccccc2)cc1Cl (stereo not drawn) | 2.35 µM | 13.3 µM | 2.87 µM | 14.9 µM | 8.16 µM | 24.6 µM | 0.351 µM | 1.52 µM | 9.73 µM | 28.2 µM | 4.88 µM | 17.5 µM | 4.36 µM | 23.6 | 3.54 µM | 17.7 | 0.744 µM | 10.6 µM | 1.74 µM | 4.18
COc1cc2c(cc1C1COc3cc4occc4cc3C1=O)OCO2 (stereo not drawn) | – | > 100 µM | – | > 100 µM | – | > 100 µM | – | > 100 µM | – | > 100 µM | – | > 100 µM | – | 30.1 | – | > 100 | – | > 100 µM | – | > 100
